Experimental findings from patent US4550118A, “Heterocyclic compounds” (Ikeda Mohando Co., Ltd., priority 1982, dated 1985) are described below.

Data set [1] relates to acid secretion in pylorus-ligated rats. The data set is described as follows: Anti-secretory effect (histamine-stimulated gastric acid secretion) in pylorus-ligated rat. In kind it is in vivo, male wistar rats. To be noted: Rattus norvegicus, sc, 3 h; 2 mg/kg s.c., 30 min before histamine 3 mg/kg s.c.; n=5; * significant at 5%, ** at 1% vs control; read-out: inhibitory effect of acid secretion (%) at 2 mg/kg s.c. The procedure:
(A) Anti-secretory Effect in Pylorus-ligated Rat
After 24 hr fasting, male wistar rats weighing about 160 g were anesthetized by intraperitoreal injection of urethans 1.2 g/kg. Then, after ligating the pylorus and the esophagus, the proventriculus was incised and a double polyethylene cannula was inserted. The gastric wall was washed out with 5 ml of physiological saline every 30 minutes and the amount of acid contained in the saline after washing was measured by titration. After measuring the basal acid secretion of the pylorus ligated rats three times, the compounds of the invention, 2 mg/kg, were administered subcutaneously and, 30 minutes thereafter, histamine 3 mg/kg, was administered also subcutaneously. Then, the amounts of acid secretion were measured for 3 hours. […] Then, an inhibition rate was calculated in accordance with the following formula, in relation to the increment values measured for the control group. [formula]
One group included five examples.

The target of data set [2] is T1, histamine H2 receptor in atria (Cavia porcellus, UniProt P47747).
T1 construct: right atrium was isolated; from tissue; host or cells: isolated right atrium of male Hartley guinea pig
T1 sequence (P47747 whole entry): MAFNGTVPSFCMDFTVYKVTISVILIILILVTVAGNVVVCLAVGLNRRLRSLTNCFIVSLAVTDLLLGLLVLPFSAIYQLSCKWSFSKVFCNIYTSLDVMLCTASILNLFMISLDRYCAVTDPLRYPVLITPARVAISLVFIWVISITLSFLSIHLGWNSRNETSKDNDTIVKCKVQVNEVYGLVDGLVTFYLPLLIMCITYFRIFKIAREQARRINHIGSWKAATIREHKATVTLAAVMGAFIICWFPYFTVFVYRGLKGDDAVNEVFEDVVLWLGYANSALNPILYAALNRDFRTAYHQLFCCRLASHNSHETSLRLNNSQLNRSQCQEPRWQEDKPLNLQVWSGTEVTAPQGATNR
Nature of the data set: Histamine H2 receptor inhibition effect by isolated guinea pig right atrium preparation (negative chronotropic effect). The data set is classed as cell-based, Male Hartley Guinea Pig. To be noted: 5×10^-6 mol sample 3 minutes prior to histamine, mean of five, read-out: inhibitory effect of histamine H2 receptor in atria (pA2 value) (converted). The procedure: (B) Measurement of Histamine H2 Receptor Inhibition Effect by Isolated Guinea Pig Right Atrium Preparation
Male Hartley Guinea Pig weighing around 400 g was sacrified by decapitation, and right atrium was isolated. The right atrium was suspended in an organ bath (50 ml) containing modified Ringer solution. Under application of a tensile load of 1 g, the heart rate was recorded by means of a polygraph. Histamine was applied cumulatively from 1×10^-7 mol to 3×10^-4 mol and a cumulative dosage response curve was drawn. Then, 5×10^-6 mol of the sample was administered 3 minutes prios to histamine application. The negative logarithmic value (pA2) of the specimen molarity required for shifting the curve to the right to double concentration was calculated.

In data set [3] the test system is gastric mucus secretion. Nature of the data set: Effect on gastric mucus secretion in rats (alcian blue binding). In kind it is in vivo, Wistar male rats. Particulars: 10 mg/kg × 2/day orally for 7 days, * significant at 5%, ** at 1%; for Alcian blue binding: 7 rats; for % Change (Alcian blue binding): vs control (0.5% CMC). The procedure:
The test compounds were administered orally to Wistar male rats weighing from 160 to 180 g so as to investigate the effect on gastric mucus secretion. The amount of mucus was determined using alcian blue color specifically bonding with acid mucosaccharides, and was expressed by the amount of color bonding with a unit weight (OD units/g tissue). The test compounds were administered at a dosage of 10 mg/kg twice a day for 7 days, and the rats were sacrificed one hour after the final administration in the morning on the 8th day by cervical dislocation. After laparatomy, the stomach was removed. After removal of the forestomach, an incision was made along the greater curvatura. The stomach was lightly washed with a 0.25M sucrose solution cooled with ice. The weight was determined after absorption of water with a filter paper.
Then, the stomach was exposed for 1.5 hrs in 10 ml of 0.25M sucrose solution containing 0.1% alcian blue 8 GX for staining. Then, the stained stomach was washed with 10 ml of a 0.25M sucrose for 15 min, being dipped in 15 ml of a 0.5M MgCl2 for 2 hrs so as to elute alcian blue combined with the mucus. Finally, 10 ml of ethyl ether was added, and the mixture was shaken vigorously. The floating substances were removed, and the aqueous layer was quantified by measuring the absorption at 605 nm.
The above procedures were carried out at room temperature.

Data set [4] in a line: Acute oral toxicity test in mice (LD50, Litchfield-Wilcoxon). To be noted: mouse, in vivo. The method, then:
Male dd-mice were divided into groups of 5 and fasted for 8 hours. The test compounds were administered orally to the mice weighing from 19.7 g. to 22.0 g. The mice were observed survival or death as well as the general symptoms over 7 days after the administration of the compounds. The value of LD50 for each compound was estimated from the mortality observed on the basis of the Litchfield-Wilcoxon method.
In a similar test, the test compound of example 27, 35, 66, 84, 97, 104, 118, 125 or 129 was administered orally to the mice at a dose of 1500 mg/kg.

Turning to `CN(C)Cc1cccc(Cc2cnc(NCCSCc3ccc4[nH]c(CN(C)C)nc4c3)[nH]c2=O)c1` [Example 78, 2-[2-<5-(2-dimethylaminomethylbenzimidazolyl)methylthio>ethylamino]-5-(3-dimethylaminomethylbenzyl)-4-pyrimidone], the inhibition in vivo at 2 mg/kg in data set [1] came to 107%. Moreover, the Kb in data set [2] is 1780 nM. In data set [3], the Alcian blue binding was found to be 0.45 ± 0.04 OD units/g tissue and the “% Change (Alcian blue binding)” value is “+24.6%”.
A word on the LD50: it is the dose at which mortality reaches 50%. Read a high LD50 as lower toxicity. As for `CN(C)Cc1nc2cc(CSCCNc3n[s+]([O-])nc3N)ccc2[nH]1` (stereo not shown) [Example 103, 3-[2-<5-(2-dimethylaminomethylbenzimidazolyl)methylthio>ethyl]amino-4-amino-1,2,5-thiadiazol-1-oxide], the inhibition in vivo at 2 mg/kg in data set [1] is 98%. In data set [2], the Kb was 575 nM. Moreover, in data set [3], the Alcian blue binding stood at 0.31 ± 0.02 OD units/g tissue and the “% Change (Alcian blue binding)” value was “+14.8%”. Moreover, the LD50 at 168 h in data set [4] (oral, groups of 5, 7 days observation) is more than 4000 mg/kg.
Consider `CNC(=NC#N)NCCCOc1ccc2[nH]c(NC(=N)N)nc2c1` [Example 8, N-cyano-N'-methyl-N"-[3-<5-(2-guanidinobenzimidazolyl)oxypropyl] guanidine], for which, in data set [3], the Alcian blue binding was determined as 0.55 ± 0.04 OD units/g tissue and the “% Change (Alcian blue binding)” value is “+52.5%”.
In the case of `CN(C)Cc1nc2cc(CSCCNc3nc(N)nn3C)ccc2[nH]1` [Example 97, 1-methyl-5-[2-<5-(2-dimethylaminomethylbenzimidazolyl)-methylthio>ethyl]-1H-1,2,4-triazole-3,5-diamine], the inhibition in vivo at 2 mg/kg in data set [1] stood at 76%. Besides, the Kb in data set [2] is 891 nM. Also, in data set [3], the Alcian blue binding was determined as 0.49 ± 0.02 OD units/g tissue and the “% Change (Alcian blue binding)” value is reported as “+37.4%”. Besides, the LD50 at 168 h in data set [4] (similar test, oral dose of 1500 mg/kg) is more than 1500 mg/kg.
